Test results taken from patent publication US12544373B2, “Treatment of cancer, inflammatory diseases and autoimmune diseases” (Usher III Initiative, Inc., priority 2020, dated 2026).
pIC50: −log10 of the molar value. Like-named read-outs stand apart in the source and are kept apart here.

How the values were obtained:
Type in all cases: cell-based, human
[1] = test system: CXF HCC-2998; test: CellTiter-Blue 2D monolayer assay (Example 1), colon; details: for Test/Control (%): 72 h
Method: (§1) Compound 85 was assessed in 10 human tumor cell lines (see Table 3) for anti-cancer activity in vitro using a CellTiter-Blue® based 2D monolayer assay.
(§2) CellTiter-Blue® Cell Viability Assay: Tumor cells were grown at 37° C. in a humidified atmosphere with 5% CO2 in RPMI medium, supplemented with 10% (v/v) fetal calf serum and 50 μg/ml gentamicin (140 μl/well). Cultures were incubated at 37° C. and 5% CO2 in a humidified atmosphere. After 24 hours, 10 μl of Compound 85 was added, and left on the cells for another 72 hours (incubation period). Compound 85 was tested at 5 concentrations (0.003 μM, 0.03 μM, 0.3 μM, 3 μM, and 30 μM) and serially diluted in DMSO, mixed with cell culture medium, and added to the assay plates by using a Tecan Freedom EVO 200 robotic platform. The DMSO concentration was kept constant at 0.3% yip across the assay plate. Every 96 well plate included six DMSO-treated control wells and Compound 85-treated wells in duplicate at 5 concentrations. Viability of cells was quantified using the CellTiter-Blue® cell viability assay (Promega G8081). After incubation of cells, the CellTiter-Blue® reagent was brought to ambient temperature. Next, 20 μl of CellTiter-Blue® reagent were added to each well. After incubation tier up to 4 hours, fluorescence (FU) was measured using the EnSpire® multimode plate reader (Perkin Elmer) ([…]).
(§3) Data Evaluation: Sigmoidal concentration-response curves were fitted to the data points (test-versus-control; T/C values) obtained for each tumor model using 4 parameter non-linear curve fit (Charles River DRS Datawarehouse Software). Drug effects are expressed in terms of the percentage of the fluorescence signal, obtained by comparison of the mean signal in the treated wells with the mean signal of the untreated controls (T/C-value [%]) (Table 4). IC50 and IC70 values were reported as relative and absolute IC50 and IC70 values (Table 5). The absolute IC50 and IC70 values reflect the concentration of Compound 85 that achieves T/C=50% and T/C=30%, respectively. The relative IC50 value is the concentration of Compound 85 that gives a response half way between the top and bottom plateau of the sigmoidal concentration-response curve (inflection point of the curve).

[2] = test system: CXF LS 174T; test: as above; details: for Test/Control (%): 72 h
Method: as §1, §2, §3

[3] = test system: MEXF 1341; test: CellTiter-Blue Cell Viability Assay (Example 2), melanoma; details: for T/C %: 72 h
Excerpt: (§4) The CellTiter-Blue® Cell Viability Assay was used to assess the viability of cells from various cancer cell lines, in the presence or absence of Compound 85 (at different concentrations). This assay provides a homogeneous, fluorometric method for estimating the number of viable cells present in multi-well plates. Viable cells retain the ability to reduce resazurin to resorufin, which is highly fluorescent. […] The fluorescence produced is proportional to the number of viable cells. There is a linear relationship between cell number and fluorescence.
(§5) Cancer cells (see Table 6) were harvested from exponential phase cultures, counted and plated in 96 well flat-bottom microtiter plates, at a cell density 6,000-20,000 cells/well, depending on the cell line's growth rate. The culture medium was supplemented with 10% (v/v) foetal calf serum and 50 μg/mL gentamicin (140 μL/well). Cultures were incubated at 37° C. and 5% CO2 in a humidified atmosphere.
(§6) Compound 85 was serially diluted in DMSO, and five Compound 85 concentrations in half-log increments were used: 0.03 μM, 0.09 μM, 0.30 μM, 1.0 μM, and 3.0 μM. After 24 h, 10 μL of Compound 85 (dissolved in DMSO) or control (DMSO) medium were added, in duplicates, and left on the cells for another 72 h. Compound 85 solutions were added to the assay plates using a Tecan Freedom EVO 200 robotic platform. The DMSO concentration was kept constant at 0.3% v/v across the assay plate.
(§7) After incubation of up to 72 hours, fluorescence (FU) was measured using the EnSpire® multimode plate reader (Perkin Elmer) (excitation λ=570 nm, emission λ=600 nm).
(§8) Cancer cell lines used: Compound 85's anti-cancer effect was tested in 20 human cancer-cell lines representing nine cancer types (Table 6).
(§9) The percentage of viable cells in the presence of Compound 85 (Test condition, T), at different concentrations, are presented in Table 7 and expressed as a percentage of the number of viable cells in the presence of DMSO without Compound 85 (Control condition, C).
(§10) The relative IC50 is determined as the Compound 85 concentration giving a response halfway between the maximum cell viability signal (i.e., a 100% cell viability, no Compound 85 response) and the minimal viability signal (i.e. maximum cell viability inhibition achieved by Compound 85), in a sigmoidal concentration-effect curve.
(§11) The absolute IC50 is determined as the concentration that is associated with a T/C ratio of 50%.

[4] = test system: MEXF 1737; test: as above; details: for T/C %: 72 h
Excerpt: as §4, §5, §6, §7, §8, §9, §10, §11

[5] = test system: OVXF 899; test: CellTiter-Blue Cell Viability Assay (Example 2), ovarian; details: for T/C %: 72 h
Excerpt: as §4, §5, §6, §7, §8, §9, §10, §11

[6] = test system: OVXF A2780; test: as above; details: for T/C %: 72 h
Excerpt: as §4, §5, §6, §7, §8, §9, §10, §11

## CC(C)(O)Cn1nc(-c2ccccc2)c2c(Cl)c(-c3ccccc3)nnc21 [Compound 85]
[1]
  Rel. IC70: 1630 nM
[1]; 0.003 μM
  Test/Control (%): 97%
[1]; 0.03 μM
  Test/Control (%): 100%
[1]; 0.3 μM
  Test/Control (%): 90%
[1]; 3 μM
  Test/Control (%): 13%
[1]; 30 μM
  Test/Control (%): 1%
[1]; T/C=30%
  Abs. IC70: 1628 nM
[1]; T/C=50%, read-out: Abs. IC50
  pIC50: 5.99
[1]; bottom plateau of curve
  Bot. (%): 1%
[1]; read-out: Rel. IC50
  pIC50: 5.99
[1]; top plateau of curve
  Top (%): 99%
[2]
  Rel. IC70: 328 nM
[2]; 0.003 μM
  Test/Control (%): 103%
[2]; 0.03 μM
  Test/Control (%): 101%
[2]; 0.3 μM
  Test/Control (%): 35%
[2]; 3 μM
  Test/Control (%): 4%
[2]; 30 μM
  Test/Control (%): 0%
[2]; T/C=30%
  Abs. IC70: 346 nM
[2]; T/C=50%, read-out: Abs. IC50
  pIC50: 6.67
[2]; bottom plateau of curve
  Bot. (%): 1%
[2]; read-out: Rel. IC50
  pIC50: 6.69
[2]; top plateau of curve
  Top (%): 103%
[3]
  Absolute IC70: 445 nM
  Relative IC70: 451 nM
[3]; 0.03 μM
  T/C %: 97%
[3]; 0.095 μM
  T/C %: 91%
[3]; 0.3 μM
  T/C %: 82%
[3]; 0.95 μM
  T/C %: 0%
[3]; 3.0 μM
  T/C %: 0%
[3]; read-out: Absolute IC50
  pIC50: 6.41
[3]; read-out: Relative IC50
  pIC50: 6.40
[4]
  Absolute IC70: 925 nM
  Relative IC70: 864 nM
[4]; 0.03 μM
  T/C %: 99%
[4]; 0.095 μM
  T/C %: 97%
[4]; 0.3 μM
  T/C %: 101%
[4]; 0.95 μM
  T/C %: 27%
[4]; 3.0 μM
  T/C %: 16%
[4]; read-out: Absolute IC50
  pIC50: 6.08
[4]; read-out: Relative IC50
  pIC50: 6.10
[5]
  Absolute IC70: 418 nM
  Relative IC70: 423 nM
[5]; 0.03 μM
  T/C %: 98%
[5]; 0.095 μM
  T/C %: 94%
[5]; 0.3 μM
  T/C %: 65%
[5]; 0.95 μM
  T/C %: 1%
[5]; 3.0 μM
  T/C %: 0%
[5]; read-out: Absolute IC50
  pIC50: 6.46
[5]; read-out: Relative IC50
  pIC50: 6.45
[6]
  Absolute IC70: 463 nM
  Relative IC70: 463 nM
[6]; 0.03 μM
  T/C %: 102%
[6]; 0.095 μM
  T/C %: 96%
[6]; 0.3 μM
  T/C %: 87%
[6]; 0.95 μM
  T/C %: 0%
[6]; 3.0 μM
  T/C %: 0%
[6]; read-out: Absolute IC50
  pIC50: 6.39
[6]; read-out: Relative IC50
  pIC50: 6.39
